Tested on: TNFSF3 mRNA
Experiment: TNFSF3 mRNA in whole blood after dietary component and heat-aggregated IgG stimulation
Type: cell-based, human
Details: case 1, FIG. 5; pre-incubation 30 minutes, HAG 2 hours; quercetin 100 nmol/L
Experimental: The mRNA and cDNA were prepared from the whole blood that was exposed to the dietary components, as well as the whole blood which remained unexposed. In brief, home-made 96-well filterplates were placed over collection plates, and 150 μl 5 mM Tris, pH 7.4, was applied. Following centrifugation at 120×g for 1 min at 4° C., 50 μl of blood samples were applied to each well and immediately centrifuged at 120×g for 2 min at 4° C., followed by washing of each well with 300 μl PBS once with centrifugation at 2000×g for 5 min at 4° C. […] The Ct was determined by analytical software (SDS, ABI).
In this embodiment, heparinized whole blood of two individuals was pre-incubated with various dietary supplements at 37° C. for 30 minutes (at the same blood concentrations as in Embodiment 2), then stimulated with 1.2 μL of heat-aggregated IgG. […] The level of TNFSF3 and TNFSF15 mRNA was then assessed using the method described in Embodiment 1, with the exception that SYBR Green PCR was used to quantitate the mRNA. […]

Compound: O=c1c(O)c(-c2ccc(O)c(O)c2)oc2cc(O)cc(O)c12 [quercetin]
- HAG-induced TNFSF3 expression, in words: HAG induced TNFSF3 expression in blood exposed to quercetin

— patent US20080206761A1, “Ex Vivo Gene Expression in Whole Blood as a Model of Assessment of Individual Variation to Dietary Supplements” (priority 2005, published 2008)
